# Assay results published in US7705001B2, “Therapeutic substituted gamma lactams” (Allergan, Inc, priority 2008, dated 2010).
# Tested on: lashes and adjacent hairs of patients
# Assay: Lash and hair growth observed in glaucoma patients treated in one eye
# Type: in vivo, human
# Details: glaucoma patient treated in only one eye
# Text: In the course of treating patients having glaucoma, treatment may only be appropriate in one eye. […] The lash appearance on the lids of the treated eyes would have appeared quite attractive if it represented a bilateral phenomenon. As a result of its asymmetric nature, the long lashes on one side could be construed as disturbing from a cosmetic standpoint. A systemic examination was preformed as a result of the asymmetric phenomenon. It soon became apparent that this altered appearance was not an isolated finding. […] Definite differences could be identified to varying degrees in the lashes and adjacent hairs of all patients who were taking the drug on a unilateral basis for longer than 6 months.
# The changes in the lashes were apparent on gross inspection in several patients once attention was focused on the issue. In those with light colored hair and lashes, the differences were only seen easily with the aid of the high magnification and lighting capabilities of the slit lamp biomicroscope. In the course of glaucoma follow-up examination, attention is generally immediately focused on the eye itself. As a result of the high power magnification needed only one eye is seen at a time and the eye is seen at a high enough power that the lashes are not in focus. […]
smiles,measurement,value
CCNC(=O)CCC/C=C\C[C@@H]1[C@@H](/C=C/[C@@H](O)CCc2ccccc2)[C@H](O)C[C@@H]1O [bimatoprost],lash appearance in treated eye versus non-treated eye,"longer, thicker, and fuller in the treated eye than in the non-treated eye"
